Data on one compound can be found in US12162935B2, “Regimens, compositions and methods with capsaicin and TNF-alpha inhibitor” (priority 2018, dated 2024).

The target in data set [1] is TRPV1 (Homo sapiens, UniProt Q8NER1). Kind of data set: Ca2+ imaging (Fluo-4AM) in HEKVR1 cells. The data set is classed as cell-based. The following applies: capsaicin 2.5 μM. The text has this: NE has been linked to immediate increase in ROS generation and persistent oxidative stress in the cochlea2, leading to generation of reactive oxygen species such as: hydroxyl […] (OH^−), superoxide anion (O^2—) and hydrogen peroxide (H2O2).
Chain of TRPV1 (Q8NER1 whole entry, species assumed): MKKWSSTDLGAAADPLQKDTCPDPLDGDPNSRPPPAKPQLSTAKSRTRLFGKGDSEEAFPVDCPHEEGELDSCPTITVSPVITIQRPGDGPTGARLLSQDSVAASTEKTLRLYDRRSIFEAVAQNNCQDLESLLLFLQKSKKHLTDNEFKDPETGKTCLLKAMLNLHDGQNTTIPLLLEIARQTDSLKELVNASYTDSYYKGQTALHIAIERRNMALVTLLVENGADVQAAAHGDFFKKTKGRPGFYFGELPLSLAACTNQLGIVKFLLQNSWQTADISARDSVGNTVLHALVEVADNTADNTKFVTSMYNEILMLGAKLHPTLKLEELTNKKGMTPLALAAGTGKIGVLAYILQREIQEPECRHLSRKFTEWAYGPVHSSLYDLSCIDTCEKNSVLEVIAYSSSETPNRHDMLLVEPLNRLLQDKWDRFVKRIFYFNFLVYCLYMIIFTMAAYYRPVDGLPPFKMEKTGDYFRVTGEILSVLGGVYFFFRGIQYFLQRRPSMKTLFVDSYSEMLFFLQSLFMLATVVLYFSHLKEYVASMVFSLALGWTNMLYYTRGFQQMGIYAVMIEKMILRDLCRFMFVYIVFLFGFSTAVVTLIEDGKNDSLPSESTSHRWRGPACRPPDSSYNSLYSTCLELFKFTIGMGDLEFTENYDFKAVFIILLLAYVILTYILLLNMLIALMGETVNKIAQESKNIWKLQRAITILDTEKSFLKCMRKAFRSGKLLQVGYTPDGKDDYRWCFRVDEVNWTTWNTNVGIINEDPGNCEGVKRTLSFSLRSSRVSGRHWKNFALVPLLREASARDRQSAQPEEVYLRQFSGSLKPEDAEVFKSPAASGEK

Data set [2] deals with UB/OC1 cells. Kind of data set: Bax/Bcl-2 ratio in UB/OC1 cells. The data set is classed as cell-based, mouse.
Data set [3] deals with rat cochlea. Kind of data set: Cochlear gene expression by qPCR after noise exposure. The data set is classed as in vivo. The protocol: Cochleae were pared down to the bone, crushed in liquid nitrogen followed by extraction in 500 μl of TRI reagent. 0.1 ml of chloroform was added, and the tube was shaken vigorously for 15 seconds and centrifuged at 12,000×g for 15 min. RNA was extracted by washing the pellet with 0.5 ml ice-cold isopropanol followed by cold 75% treated ethanol. The ethanol was removed and the tube was air dried briefly. The RNA pellet was resuspended in nuclease free water and RNA levels were determined using optical density readings corresponding to wavelengths of 260 nm, 280 and 320 nm using a spectrophotometer (Eppendorf BioPhotometer, Hamburg, Germany).
500 ng of total RNA was converted to cDNA using iScript cDNA Synthesis Kit (Bio-Rad, Hercules, CA). The reaction mixture was set up as follows: Ing of total RNA, 4 μl of iScript reaction mix, 1 μl of iScript reverse transcriptase, nuclease free water to bring the total volume to 20 μl. The reaction mix was incubated at 25° C. for 5 min, 42° C. for 30 minutes and 85° C. for 5 minutes. This cDNA reaction mix was used for real time PCR, as described previously [Mukherjea et al., 2006]. Gene specific primer pairs were used for the various reactions and mRNA expression levels were normalized to the levels of GAPDH. The primer sets were purchased from Sigma Genosys (St. Louis, MO), and were as follows: […]
In general terms: In qPCR the cycle at which signal appears reflects the starting amount.

For data set [4], the system named is Wistar rats. The following applies: capsaicin TT 50 μl of 0.1 μM; Mukherjea et al., 2011; cited from earlier work.
Data set [5] deals with UB/OC-1 cells. Nature of the data set: Cell viability assay (MTS assay). The data set is classed as cell-based. The note with it: capsaicin 2.5 μM prior to cisplatin 20 μM. The protocol:
The in vitro UB/OC1 cell proliferation was performed by using the CellTiter 96® AQueous One Solution Cell Proliferation Assay Kit (Promega, Madison, WI), according to the manufacturer's instructions. 3,500 cells were seeded per well into a 96-well plate. […] After 48 h, 20 μl of CellTiter 96 AQueous One Solution reagent was added to each well in 100 μl of total volume of media. Cells were incubated for 1 h, and recorded absorbance at 490 nm using an ELISA plate reader. The absorbance is directly proportional to the number of living cells and is expressed as a percent relative to vehicle-treated cells.
In general terms: Formazan colour is commonly taken as a measure of viable cells.

Structures are written as SMILES.

In the case of `COc1cc(CNC(=O)CCCC/C=C/C(C)C)ccc1O` [capsaicin, 8-methyl-N-vanillyl-trans-6-nonenamide], the “increase in Ca^2+ over basal fluorescence” value in data set [1] was 741±22%. In addition, in data set [2], the Bax/Bcl-2 ratios was 1.1±0.2. Further, in data set [3] (oral Cap+NE), the “Bax gene expression over oral PBS control” value came out at 0.86±0.1 fold, the “COX2 gene expression over oral PBS control” value is recorded as 0.84±0.2 fold, the “NOX3 gene expression over oral PBS control” value is 0.5±0.2 fold and the “TNF-α gene expression over oral PBS control” value was determined as 0.9±0.1 fold. The “TRPV1 gene expression over oral PBS control” value in data set [3] (oral Cap+NE) is 0.85±0.2 fold. In addition, in data set [3] (oral capsaicin alone), the “Bax gene expression over oral PBS control” value amounted to 0.69±0.1 fold, the “COX2 gene expression over oral PBS control” value came to 1±0.1 fold, the “NOX3 gene expression over oral PBS control” value is 0.7±0.2 fold and the “TNF-α gene expression over oral PBS control” value is on record as 1±0.15 fold. In addition, in data set [3] (oral capsaicin alone), the “TRPV1 gene expression over oral PBS control” value worked out at 0.9±0.1 fold. Also, in data set [4], the “duration of transient ABR threshold shift” value is 24 h. In addition, in data set [5], the cisplatin-induced cell killing entry is “blocked cisplatin-induced cell killing”.
